Usually IC50 stands for the concentration that inhibits the measured activity by half. The term EC50 denotes the midpoint of the concentration-response curve. A higher EC50 goes with weaker potency.

The values below come from patent US8598157B2, “5-alkynyl-pyridines” (Boehringer Ingelheim International GmbH, priority 2011, dated 2013).

The target in assay [1] is PI3Kalpha (Homo sapiens (Human), UniProt P42336). As to the kind of experiment: Inhibition of PI3Kalpha-induced PIP-2 phosphorylation (filter-binding assay). Conditions: 33P-ATP, p85alpha/His-p110alpha, read-out: IC50 PI3Kα. The class given is biochemical. The source says: Inhibition of PI3Kalpha-Induced PIP-2 Phosphorylation
This PI3Kalpha assay provides an IC50 value indicative of the activity of the compounds to inhibit PI3 kinase alpha activity. Inhibition of PI3 kinase would be expected to be indicative of activity in treating conditions of excessive or anomalous cell proliferation, such as cancers. See also J. A. Engelman, Nature Reviews Cancer, 2009, 9, 550-562; A. Carnero, Expert Opin. Investig. Drugs, 2009, 18, 1265-1277 and P. Liu et al., Nature Reviews Drug Discovery, 2009, 8, 627-64.
Method Type: Filter-Binding-Assay
Aliquoted in desired amounts and stored at −80° C. Final assay concentration 25 ng/well • Phosphotyrosin PDGFRbeta-peptide H-CGG-pY-[…]-pY-VPMLDM-NH2 was synthesized by Jerini Peptide Technologies (JPT) and used in a final conc. of 1.7 μM (stock 100 μM prepared in Assay buffer with DTT, aliquoted in desired amounts and stored at −80° C.) • Cold ATP (from Sigma; A-7699), 100 μM stock solution in H2O, use 1 μM final concentration in assay • [33P]-ATP, 370 MBq/ml from Amersham (#AH9968), use 0.5 μCi/well (10 mCi/ml) • Clear 96-well plates from Greiner (#655 162) • Filter plates: Perkin Elmer UniFilter GF/B #6005177 • Microscint 0 (from Perkin Elmer, #6013611) 2. Assay Procedure
The substrate-containing lipid vesicles are dissolved to a concentration of 0.637 mg lipid blend/ml assay buffer (with BSA, freshly added) in 50 ml Falcon->keep on ice, followed by ultrasonication (pulse of 15 sec followed by a pause of 10 sec, 4×). Compounds are serially diluted in assay buffer+6% DMSO and […] of each dilution is added per well of a 96-well plate (compounds are tested in duplicates) and mixed with 30 μl of the lipid vesicles containing PDGFR-Peptide ([…]) and PI3K alpha (25 ng/well final). The mixture is then incubated for 20 minutes at room temperature. Subsequently, 20 μl of assay buffer containing […] cold ATP and 0.5 μCi/20 μl 33P-ATP are added. The plates are then incubated at room temperature for 120 minutes (shaking with 300 rpm).
The reaction mix is transferred onto filter plates using “filtermate harvester” from Packard: filter plates are rinsed with PBS, then the reaction mix is filtered onto the filter plate, washed 5 times with PBS and are allowed to dry for 30-60 minutes at 50° C.
The plate bottom is sealed with Perkin Elmer white adhesive foil and 25 μl/well Microscint( ) are added, the top is covered with transparent adhesive foil and the plate is measured with Wallac Trilux 1450 Microbeta Counter.
As positive control serve wells containing vehicle controls (1% DMSO in assay buffer), showing non-inhibited kinase activity (high values). Wells containing assay buffer instead of enzyme can serve as control for background activity (low values).
Calculate IC50 values using the Smiley program (based on GrapPad Prism)

The test system of assay [2] is H460 cells. As to the kind of experiment: alamarBlue H460 cell assay (antiproliferative/cytotoxicity). To be noted: NCI-H460; H460 human lung carcinoma cells. The class given is cell-based. The source says: (§1) The H460, MB453, U87, MCF7 and BT474 alamarBlue cell assays provide EC50 values indicative of the antiproliferative or cytotoxic effects of the compounds to respectively the H460 (human non small cell line cancer), MB-453 (breast cancer cell line), U87 (glioblastoma cell line), MCF7 (breast cancer cell line) and BT474 (breast cancer cell line). As known in the field, antiproliferative or cytotoxic effect against this cell lines would be expected to be indicative of activity in treating lung, breast and brain cancers. See R. Marone R et al. Biochim. Biophys. Acta. 2008 January; 1784(1):159-85. S. Yaguchi et al., J. Natl. Cancer Inst. 2006 Apr. 19; 98(8):545-56.
(§2) Method Type: Antiproliferative/Cytotoxicity
(§3) alamarBlue® is designed to provide a rapid and sensitive measure of cell proliferation and cytotoxicity in various human and animal cell lines. The assay is based on the reduction of alamarBlue in the reducing environment of living (metabolically active) cells. In the presence of added cytotoxic or antiproliferative compounds, the innate metabolic activity ceases.
(§4) AlamarBlue is soluble and stable in culture medium. Measurements are made fluorometrically by exciting at 530-560 nm and measuring emission at 590 nm. In reporting percent alamarBlue reduction by monitoring fluorescence, data are expressed as fluorescence emission intensity units as a function of time of incubation.
(§5) 3. Equipment • 96-well plates, flat bottom (Falcon, Cat. No.: 353072) • 96-well plates, U-shaped (Costar, Cat. No.: 3799) • CO2-Incubator • Microplate Reader, Spectramax Plus, Molecular Devices 4. Typical Procedure • Day 0: Seed 3000 BT-474 cells (IMDM/5% FCS, 1% NEAA, 1% Sodiumpyruvat) in 150 μl medium into a 96-well plate, flat bottom (include mediumblank). Incubate plates at 37° C. in a CO2 incubator overnight. • Day 1: Dilute compounds to a concentration 40 μM->1:3 in medium, 10 dilution steps, in 96-well plates. • Add 50 μl per well of each dilution (total volume per well 200 μl; final conc. of cpds: 10 μM->1:3). If required, test further dilutions. • All concentrations are tested in duplicates. • Controls: Cells w/o cpd. (+50 μl medium/DMSO). • Cells are incubated with compounds for 5-6 days. • Day 6 or 7: Add 25 μl of alamarBlue solution to each well and incubate for 8 hours at 37° C. Measure fluorescence by exciting at 530-560 nm and measuring emission at 590 nm. 5. Evaluation • Subtract average value for medium blank from sample readings • Calculate EC50 using GraphPad Prism (Fifty)
On the technique in general: Alamar Blue is a resazurin reagent that responds to reducing activity.

Assay [3] deals with MB453 cells. As to the kind of experiment: alamarBlue MB453 cell assay (antiproliferative/cytotoxicity). In kind it is cell-based. To be noted: Homo sapiens; MDA MB 453 breast cancer cell line.
Excerpt: as §1, §2, §3, §4, §5

Assay [4] concerns U87 cells. As to the kind of experiment: U87 cell assay (antiproliferative/cytotoxicity). In kind it is cell-based. Conditions: U-87MG human glioblastoma cells.
Excerpt: as §1, §2, §3, §4, §5

For assay [5], the system named is MCF7 cells. As to the kind of experiment: alamarBlue MCF7 cell assay (antiproliferative/cytotoxicity). The class given is cell-based. To be noted: MCF7 human breast cancer cell line.
Excerpt: as §1, §2, §3, §4, §5

The test system of assay [6] is BT474 cells. As to the kind of experiment: alamarBlue BT474 cell assay (antiproliferative/cytotoxicity). The class given is cell-based. To be noted: BT-474 human breast cancer cell line.
Excerpt: as §1, §2, §3, §4, §5

Chain of PI3Kalpha (P42336 whole entry): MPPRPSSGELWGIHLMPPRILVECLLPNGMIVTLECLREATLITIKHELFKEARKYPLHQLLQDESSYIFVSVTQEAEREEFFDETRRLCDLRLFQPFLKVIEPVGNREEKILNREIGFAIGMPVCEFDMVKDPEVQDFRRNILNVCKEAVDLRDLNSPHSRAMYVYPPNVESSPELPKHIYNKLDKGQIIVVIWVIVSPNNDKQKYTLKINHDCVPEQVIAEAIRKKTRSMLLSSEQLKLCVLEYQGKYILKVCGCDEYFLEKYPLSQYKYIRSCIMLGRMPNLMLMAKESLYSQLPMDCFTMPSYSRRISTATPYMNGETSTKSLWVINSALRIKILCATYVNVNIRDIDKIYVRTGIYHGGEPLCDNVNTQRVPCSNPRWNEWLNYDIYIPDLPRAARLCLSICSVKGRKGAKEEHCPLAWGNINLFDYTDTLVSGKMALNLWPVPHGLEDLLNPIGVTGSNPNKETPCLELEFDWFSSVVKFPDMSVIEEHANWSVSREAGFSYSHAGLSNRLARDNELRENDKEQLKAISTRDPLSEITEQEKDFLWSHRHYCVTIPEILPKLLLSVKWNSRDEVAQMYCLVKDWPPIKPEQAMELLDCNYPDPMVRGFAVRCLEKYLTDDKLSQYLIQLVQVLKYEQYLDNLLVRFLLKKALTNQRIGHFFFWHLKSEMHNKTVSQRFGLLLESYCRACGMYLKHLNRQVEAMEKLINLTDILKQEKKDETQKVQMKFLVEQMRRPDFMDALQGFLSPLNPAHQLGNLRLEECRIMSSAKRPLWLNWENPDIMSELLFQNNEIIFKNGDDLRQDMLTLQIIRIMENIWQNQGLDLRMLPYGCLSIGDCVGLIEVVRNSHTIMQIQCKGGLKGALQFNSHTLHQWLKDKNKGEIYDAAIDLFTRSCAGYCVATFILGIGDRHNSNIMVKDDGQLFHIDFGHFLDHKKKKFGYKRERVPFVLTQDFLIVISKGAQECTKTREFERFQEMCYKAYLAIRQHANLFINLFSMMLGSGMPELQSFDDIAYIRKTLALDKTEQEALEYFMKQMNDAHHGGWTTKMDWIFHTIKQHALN

As for `CCc1ncnc(N(C)C)c1C#Cc1cnc(C)c(NS(C)(=O)=O)c1` [Example I-32, N-[5-(4-Dimethylamino-6-ethyl-pyrimidin-5-ylethynyl)-2-methyl-pyridin-3-yl]-methanesulfonamide], the 50% inhibitory concentration (IC50) in assay [1] is 8 nM. For the same compound, the 50% effective concentration (EC50) turned out to be 1210 nM in assay [2]; 656 nM in assay [3]; 1290 nM in assay [4]; 617 nM in assay [5]; 1880 nM in assay [6].

Consider `Cc1ncc(C#Cc2c(C)ncnc2N2CCOCC2)cc1NS(=O)(=O)c1cn(C)c(C)n1` [Example I-55, 1,2-Dimethyl-1H-imidazole-4-sulfonic acid [2-methyl-5-(4-methyl-6-morpholin-4-yl-pyrimidin-5-ylethynyl)-pyridin-3-yl]-amide], for which the IC50 in assay [1] came to 1 nM. Further, the half-maximal effective concentration (EC50) in assay [2] is 1180 nM; in assay [3], 1680 nM; in assay [4], 1980 nM; in assay [5] it was 208 nM; in assay [6], 1550 nM.

As to `Cc1ncc(C#Cc2c(C)ncnc2N2CCN(C3CC3)CC2)cc1NS(=O)(=O)c1ccccc1` [Example I-58, N-{5-[4-(4-Cyclopropyl-piperazin-1-yl)-6-methyl-pyrimidin-5-ylethynyl]-2-methyl-pyridin-3-yl}-benzenesulfonamide], the IC50 in assay [1] turned out to be 16 nM. The concentration for a half-maximal effect (EC50) in assay [2] is 2990 nM; in assay [3], 4640 nM; in assay [4], 25000 nM; in assay [5] it was 1300 nM; in assay [6] it was 3000 nM.

`COc1cccc(S(=O)(=O)Nc2cc(C#Cc3c(C)ncnc3N3CCOCC3)cnc2C)c1` [Example I-4, 3-Methoxy-N-[2-methyl-5-(4-methyl-6-morpholin-4-yl-pyrimidin-5-ylethynyl)-pyridin-3-yl]-benzenesulfonamide]: in assay [1], the half-inhibitory concentration (IC50) worked out at 1 nM. In addition, the concentration for a half-maximal effect (EC50) in assay [2] was found to be 114 nM; in assay [3], 294 nM; in assay [4] it was 467 nM; in assay [5], 296 nM; in assay [6], 246 nM.

As for `CCCS(=O)(=O)Nc1cc(C#Cc2c(C)ncnc2N2CCOCC2)cnc1C` [Example I-3, Propane-1-sulfonic acid [2-methyl-5-(4-methyl-6-morpholin-4-yl-pyrimidin-5-ylethynyl)-pyridin-3-yl]-amide], the 50% inhibitory concentration (IC50) in assay [1] was determined as 5 nM. The concentration for a half-maximal effect (EC50) was 315 nM in assay [2]; 777 nM in assay [3]; 529 nM in assay [4]; 451 nM in assay [5]; 1040 nM in assay [6].

On to `Cc1ncc(C#Cc2c(C)ncnc2N2CCOCC2)cc1NS(=O)(=O)c1cccs1` [Example I-10, Thiophene-2-sulfonic acid [2-methyl-5-(4-methyl-6-morpholin-4-yl-pyrimidin-5-ylethynyl)-pyridin-3-yl]-amide], for which the IC50 in assay [1] was 0.72 nM. Also, the 50% effective concentration (EC50) is 42 nM in assay [2]; 113 nM in assay [3]; 126 nM in assay [4]; 67 nM in assay [5]; 116 nM in assay [6].

For the compound `CC(=O)N1CCN(c2ncnc(C)c2C#Cc2cnc(C)c(NS(=O)(=O)c3ccccc3)c2)CC1` [Example I-61, N-{5-[4-(4-Acetyl-piperazin-1-yl)-6-methyl-pyrimidin-5-ylethynyl]-2-methyl-pyridin-3-yl}-benzenesulfonamide], in assay [1], the IC50 amounted to 2 nM. Besides, the EC50 in assay [2] came to 791 nM; in assay [3] it was 262 nM; in assay [4], 631 nM; in assay [5], 39 nM; in assay [6] it was 1120 nM.

Regarding `CCc1ncnc(N2CCOCC2)c1C#Cc1cnc(OC)c(NS(=O)(=O)c2ccc(F)cc2F)c1` [Example I-25, N-[5-(4-Ethyl-6-morpholin-4-yl-pyrimidin-5-ylethynyl)-2-methoxy-pyridin-3-yl]-2,4-difluoro-benzenesulfonamide], in assay [1], the IC50 stood at 0.63 nM. Moreover, the EC50 in assay [2] was 15 nM; in assay [3] it was 46 nM; in assay [4], 104 nM; in assay [5] it was 11 nM; in assay [6], 22 nM.

Regarding `Cc1ncc(C#Cc2c(C)ncnc2N2CCOCC2)cc1NS(=O)(=O)c1ccc(Cl)s1` [Example I-52, 5-Chloro-thiophene-2-sulfonic acid [2-methyl-5-(4-methyl-6-morpholin-4-yl-pyrimidin-5-ylethynyl)-pyridin-3-yl]-amide], the IC50 in assay [1] was determined as 0.47 nM. In addition, the concentration giving a half-maximal response (EC50) in assay [2] was 274 nM; in assay [3], 298 nM; in assay [4], 443 nM; in assay [5], 39 nM; in assay [6] it was 224 nM.

As for `CCc1ncnc(N2CCC(OC)CC2)c1C#Cc1cnc(C)c(NS(C)(=O)=O)c1` [Example I-45, N-{5-[4-Ethyl-6-(4-methoxy-piperidin-1-yl)-pyrimidin-5-ylethynyl]-2-methyl-pyridin-3-yl}-methanesulfonamide], in assay [1], the IC50 is 4 nM. Moreover, the EC50 in assay [2] amounted to 141 nM; in assay [5], 62 nM; in assay [6] it was 284 nM.

Take `Cc1ncc(C#Cc2c(C)ncnc2N2CCOCC2)cc1NS(=O)(=O)c1cnn(C)c1` [Example I-51, 1-Methyl-1H-pyrazole-4-sulfonic acid [2-methyl-5-(4-methyl-6-morpholin-4-yl-pyrimidin-5-ylethynyl)-pyridin-3-yl]-amide]: the half-maximal effective concentration (EC50) in assay [2] amounted to 196 nM; in assay [3], 199 nM; in assay [4], 315 nM; in assay [5], 12 nM; in assay [6] it was 311 nM.

On to `CCc1ncnc(N2CCC(O)CC2)c1C#Cc1cnc(C)c(NS(C)(=O)=O)c1` [Example I-46, N-{5-[4-Ethyl-6-(4-hydroxy-piperidin-1-yl)-pyrimidin-5-ylethynyl]-2-methyl-pyridin-3-yl}-methanesulfonamide], for which the half-maximal effective concentration (EC50) in assay [2] turned out to be 880 nM; in assay [5], 397 nM; in assay [6], 1270 nM.
